Data set [1] can be described thus: Solubility in PBS (pH 7.4) and simulated colonic fluid, saturated solutions by HPLC-UV. In kind it is physicochemical. Conditions: saturated solution, ambient temperature. On the procedure: The solubility and stability at room temperature of Example compound 1 and the free acid compound 5-chloro-4-hydroxy-1-methyl-2-oxo-N-phenyl-quinoline-3-carboxamide (described in Example 1a) above) was determined in PBS (pH 7.4) and in simulated colonic fluid (SCF) at ambient temperature. The SCF was the product FaSSCof obtained from Biorelevant.com prepared according to the manufacturer’s instructions. FaSSCof contains 0.15 mM sodium cholate, 0.3 mM Phospholipids, 0.1 mM Oleate, 120 mM sodium hydroxide, 45 mM TRIS and 76 mM maleate.
Saturated solutions were prepared in these solvents and the concentrations/impurity profile was determined by HPLC-UV using a calibration curve in the range of 1 to 150 µg/ml at 300 nm or 320 nm. Visual evaluation was also performed after every step over the testing period.

Data set [2] in a line: Thermogravimetric analysis (TGA) and differential scanning calorimetry (DSC). In kind it is physicochemical. As to conditions: heating 20° C./min, nitrogen. How it is done:
For the TGA analysis, approximately 5-10 mg of sample of Example Compound 1 was accurately weighed into a pierced Tzero aluminium pan and sealed with a pinhole lid using a crimper. The sample was then loaded into the chamber of a TGA thermal analyser at ambient temperature. A TA Instruments TGA5500 device was used. The sample was then heated at a rate of 20° C./min from 20° C. to 400° C. The purge gas used was nitrogen at a flow rate of 50 cm^3/min.
For the DSC analysis, approximately 2 mg of sample was accurately weighed into a pierced Tzero aluminium pan and sealed using a universal crimper. The sample was then loaded into the chamber of a DSC analyser at ambient temperature. A TA Instruments DSC2500 device was used. The sample was then heated at a rate of 20° C./min from 30° C. to 400° C. The purge gas used was nitrogen at a flow rate of 50 cm^3/min

Data set [3] deals with Ulcerative Colitis modelled by Dextran Sulphate Sodium (DSS). Nature of the data set: DSS mouse model of Ulcerative Colitis. In kind it is in vivo, C57B1/6 mice. As to conditions: 1 mg/kg daily oral; for Colitis clinical score: Day 9, vs vehicle-treated controls, FIG. 8; for Colon length: Day 10 termination, FIG. 10. On the procedure:
Ulcerative Colitis was modelled in C57B1/6 mice by administering Dextran Sulphate Sodium (DSS) in drinking water (1.5% w/v) for 5 days. Mice were monitored daily for weight loss and clinical symptoms of disease for 10 days starting at the beginning of DSS administration.
Anti-TNFα antibody was administered at 500 µg/treatment on Days 0, 2, 4, and 6. Following termination on Day 10, colons were removed and measured. The length and weight of the colon were also assessed.
Compared to naive animals, animals given DSS water developed clinical signs of disease including weight loss and diarrhoea as well as gross pathological signs of disease on experiment termination. […] Shortened length and increased weight:length ratio indicates edema associated with ulcerative colitis.

Data set [4] can be described thus: Hygroscopicity by Dynamic Vapour Sorption (DVS). In kind it is physicochemical. Conditions: 25° C.; for Hygroscopicity: DVS, 0 to 90% RH; for Reversible weight gain (DVS): analysed to 80% RH. How it is done:
Dynamic Vapour Sorption (DVS) analysis was carried out on a sample of Example compound 1.
Approximately 20 mg of sample was placed into a wire-mesh vapour sorption balance pan and loaded into an ‘IgaSorp’ vapour sorption balance (Hiden Analytical Instruments). The sample was then dried by maintaining a 0% humidity environment until no further weight change was recorded.
The sample was then subjected to a step profile from 0 to 90% RH at 10% RH increments. The desorption isotherm was from 90% RH o 0% RH in 10% RH steps. The weight change during the sorption/desorption cycles were then monitored, allowing for the hygroscopic nature of the sample to be determined. Analysis was performed using the following parameters: • Analysis Mode F1 • Wait Time 99% • Sample Temperature 25° C. • Min Time Out 30 Mins • MaxTime Out 180 Mins • Gas Flow Rate 250 ml/min

Data set [5] is described as follows: Slurry in water for 48 hours, re-examined by XRPD (disproportionation). As to conditions: slurry in water 20 mg / 400 uL, ambient temperature. In kind it is physicochemical. How it is done:
When a sample of Example compound 1 was stored in a slurry in water at 20 mg / 400uL for 48 hours at ambient temperature, recovered, dried by evaporation and re-examined by XRPD, there was no change in the X-ray diffractogram.

[6] abbreviates: listed as 5-chloro-4-hydroxy-1-methyl-2-oxo-N-phenyl-quinoline-3-carboxamide free acid.

Converted amounts (≈) assume the structure as drawn. “Also recorded” adds a separate entry of the source. Counter-ions that a name gives are not always drawn.

The source of these data is patent US20230202982A1, “5-CHLORO-4-HYDROXY-1-METHYL-2-OXO-N-PHENYL-QUINOLINE-3-CARBOXAMIDE POTASSIUM SALT FOR TREATING INFLAMMATORY BOWEL DISEASES” (Aqilion AB, priority 2020, published 2023).

`Cn1c(=O)c(C(=O)Nc2ccccc2)c(O)c2c(Cl)cccc21` [Free Acid, 5-chloro-4-hydroxy-1-methyl-2-oxo-N-phenyl-quinoline-3-carboxamide]: the “Solubility in PBS (pH7.4)” value in data set [1] (PBS (pH 7.4), listed as 5-chloro-4-hydroxy-1-methyl-2-oxo-N-phenyl-quinoline-3-carboxamide free acid) is reported as “not quantifiable; also recorded: Non quantifiable”. For the same compound, in data set [1] (simulated colonic fluid (FaSSCof), fassgf or other biorelevant, thermodynamic from solid, SCF (FaSSCof), read-out: Solubility in simulated colonic fluid (SCF)), the solubility (as a rule, how much of the substance goes into solution per volume) was 3.44 µg/mL (≈ 10.5 µM). Further, the Degradation temperature in data set [2] is 260 °C ±2 °C; in data set [2] (setting [6]), 260 °C. Besides, the Colitis clinical score entry is “protective effect against the development of the clinical symptoms” in data set [3], “significant reduction” in data set [3] (setting [6]) and “lower colitis score” in data set [3] (listed as 5-chloro-4-hydroxy-1-methyl-2-oxoN-phenyl-quinoline-3-carboxamide free acid). The Colon length result was “effective at reducing colon shortening” in data set [3] (vs vehicle-treated controls) and “significant increase; also recorded: greater colon length” in data set [3] (vs vehicle-treated controls, listed as 5-chloro-4-hydroxy-1-methyl-2-oxo-N-phenyl-quinoline-3-carboxamide free acid). Also, the “Body weight change (% change from day 1 of experiment)” value in data set [3] (vs vehicle-treated controls, FIG. 9) was “reduced weight loss”.

`Cn1c(=O)c(C(=O)Nc2ccccc2)c([O-])c2c(Cl)cccc21.[Li+]` [Example compound 3, 5-chloro-4-hydroxy-1-methyl-2-oxo-N-phenyl-quinoline-3-carboxamide lithium salt]: in data set [2] (listed as 5-chloro-4-hydroxy-1-methyl-2-oxo-N-phenyl-quinoline-3-carboxamide lithium salt, lithium salt), the Degradation temperature result is “around 360 °C”. Moreover, the Degradation temperature in data set [2] (listed as Example Compound 3, lithium salt) is 360 °C ±2 °C. Further, in data set [4], the Hygroscopicity entry was “slightly hygroscopic” and the “Reversible weight gain (DVS)” value is “less than 0.25%”. For the same compound, in data set [5], the “Stability in water slurry: change in X-ray diffractogram” value is “slight changes”.

Take `Cn1c(=O)c(C(=O)Nc2ccccc2)c(O)c2c(Cl)cccc21` [Example compound 2, 5-chloro-4-hydroxy-1-methyl-2-oxo-N-phenyl-quinoline-3-carboxamide sodium salt]: the Degradation temperature result in data set [2] (listed as 5-chloro-4-hydroxy-1-methyl-2-oxo-N-phenyl-quinoline-3-carboxamide sodium salt, sodium salt) is “around 350 °C”. Also, in data set [2] (listed as Example Compound 2, sodium salt), the Degradation temperature was 350 °C ±2 °C. In data set [4], the Hygroscopicity entry is on record as “slightly hygroscopic” and the “Reversible weight gain (DVS)” value turned out to be 1%. Also, the “Stability in water slurry: change in X-ray diffractogram” value in data set [5] is “slight changes”.
